Key:
[1] = GO radical scavenging activity (TAC assay); type: biochemical; conditions: ethanol, absorbance 428 nm
Text: In an embodiment, the AntiOxCINs antioxidant ranking activity hierarchy was established by in vitro non-cell methods. The selected total antioxidant capacity (TAC) assays (DPPH, ABTS and GO) involved the spectrophotometric measurement of the radical absorbance decrease as a result of an in situ radical deactivation by an antioxidant. Compounds with higher antioxidant activity display lower IC50 values. […] This decrease was attenuated/ameliorated by the increment of the spacer length and/or the introduction of additional hydroxyl group in the aromatic ring.
The radical scavenging activity of AntiOxCINs was evaluated by means of total antioxidant capacity assays based on DPPH., ABTS.^+ and GO. radicals. All these methods involved the spectrophotometric measurement of the absorbance decrease resulting from radical (DPPH., ABTS.^+ or GO.) deactivation with an antioxidant. The results were expressed in IC50, which is defined as the minimum antioxidant concentration necessary to reduce the amount of radical by 50%. Antioxidant assays were performed in a multiplate reader (Powerwave XS Microplate Reader) of Bio-Tech instruments.
In an embodiment, the GO′ scavenging activity was evaluated as follows: solutions of test compounds with concentrations from 5 μM to 75 μM were prepared in ethanol. An ethanolic solution of 5 mM GO′ was prepared and diluted to reach the absorbance of 1.00±0.02 at 428 nm. The addition (20 μL) in triplicate of compound solution to GO. solution (180 μL) was followed by absorbance measurement at 428 nm over 30 minutes, in the dark, at room temperature. […] Dose-response curves were established for the determination of IC50 values. Data are means±SEM of three independent experiments.

[2] = Lipophilic properties by electrochemistry at ITIES (transfer potential); type: physicochemical; conditions: aqueous phase to 1,6-dichlorohexane, DPV, C=0.32 mM
Method: In an embodiment, AntiOxCINs lipophilic properties were evaluated at physiological pH by electrochemistry. The used technique is often used to mimic the transfer of ionic drugs through biological membranes as the process occurs at the interface between two immiscible electrolyte solutions (ITIES). The transfer potential (Etr) at which the ionic drug, initially present in the aqueous phase (C=0.32 mM), is transferred to the 1,6-dichlorohexane (DCH) phase is measured by differential pulse voltammetry (DPV). In the ITIES model, the transfer potential (Etr) becomes less positive with the increasing of the drug lipophilic character.
In an embodiment, the electrochemical analytical data was obtained using a computer controlled potentiostat Autolab PGSTAT302N (Metrohm Autolab, Utrecht, Netherlands). Generally, cyclic voltammetry (CV) data was acquired at a scan rate of 50 mVs^−1. Differential pulse voltammetry (DPV) results were acquired at a step potential of 4 mV, pulse amplitude of 50 mV and scan rate of 8 mVs^−1. The electrochemical signals were monitored by the General Purpose Electrochemical System (GPES) version 4.9, software package. All electrochemical experiments were performed at room temperature in an electrochemical cell that was placed in a Faraday cage in order to minimize the contribution of background noise to the analytical signal.
In an embodiment, the process of evaluation of AntiOxCINs redox properties was conducted as follows: stock solutions of each compound (10 mM) were prepared by dissolving the appropriate amount in ethanol. The voltammetric working solutions were prepared in the electrochemical cell, at a final concentration of 0.1 mM. The […] supporting electrolyte was prepared by diluting […] to 100 mL. Voltammetric data was acquired in a three-electrode system consisting of a glassy carbon electrode (GCE, d=2 mm) as working electrode, a counter electrode of platinum wire and a saturated Ag/AgCl reference electrode. In an embodiment, the evaluation of AntiOxCINs lipophilic properties was performed as follows: the electrochemical cell was a four-electrode system with arrays of micro liquid-liquid interfaces (μlTIES) containing two Ag/AgCl reference electrodes and two counter electrodes of Pt, one in each phase. The microporous membrane was sealed with a fluorosilicone sealant (Dow Corning 730) onto a glass cylinder which was filled with 4.0 mL of the aqueous phase, where the aliquots of AntiOxCINs solutions were added. The membrane was then immersed into the organic phase contained in the cell. The organic phase reference solution (a 2 mM BTPPACI+2 mM NaCl aqueous solution) was mechanically stabilized The aqueous supporting electrolyte solution was a Tris-HCl buffer 10 mM pH 7.0.

[3] = system: rat liver mitochondria (RLM); experiment: Mitochondrial transmembrane electric potential (ΔΨ) of RLM, safranine fluorescence; type: biochemical
Method: In an embodiment, and as an example, AntiOxCINs and MitoQ toxicity effects on the mitochondrial bioenergetics, namely on RLM ΔΨ and mitochondrial respiration parameters, were measured. The […] represents the main component of the electrochemical gradient generated by mitochondrial respiration and accounts for more than 90% of the total available energy. For mitochondrial respiration assays, glutamate/malate (for complex I) and succinate (for complex II) were used as substrates. In addition, the mitochondrial oxidative phosphorylation coupling index, known as respiratory control ratio (RCR, state 3/state 4 respiration) and ADP/O index (the coupling between ATP synthesis and oxygen consumption) were also calculated. AntiOxCINs and MitoQ were tested at antioxidant-relevant concentrations, with 10 μM being the highest concentration.
In an embodiment, the evaluation of AntiOxCINs functional mitochondrial toxicity profile was performed in rat liver mitochondria (RLM). […] The protein concentration was determined by the biuret assay using BSA as a standard.
Then, 1 μM FCCP was added at the end of all experiments to depolarize mitochondria. ΔΨ was calculated using a calibration curve obtained when RLM were incubated in a K^+-free reaction medium containing 200 mM sucrose, 1 mM NaH2PO4, 10 mM Tris (pH 7.4) and 10 μM EGTA, supplemented with 0.4 μg valinomicin. […] “Repolarization” corresponded to the recovery of membrane potential after the complete phosphorylation of ADP added. Lag phase reflected the time required to phosphorylate the added ADP. […] Data are means±SEM of five independent experiments.

CS(=O)(=O)[O-].O=C(/C=C/c1cc(O)c(O)c(O)c1)NCCCCCC[P+](c1ccccc1)(c1ccccc1)c1ccccc1 [AntiOxCIN4, (E)-(6-(3-(3,4,5-trihydroxyphenyl)prop-2-enamido)hexyl)triphenylphosphonium methanesulfonate]
IC50 [1]: 3100 nM | Etr (transfer potential) [2]: 0.498 V | ADP-induced depolarization (ΔΨ in - mV) ([3]; glutamate/malate, 2.5 μM): 188.5 ± 9.6 mV | Lag Phase ([3]; glutamate/malate, 2.5 μM): 84.7 ± 7.0 s | Maximum potential (ΔΨ in - mV) ([3]; glutamate/malate, 2.5 μM): 214.6 ± 10.9 mV | Repolarization Potential (ΔΨ in - mV) ([3]; glutamate/malate, 2.5 μM): 211.8 ± 10.1 mV | ADP-induced depolarization (ΔΨ in - mV) ([3]; glutamate/malate, 5 μM): 193.8 ± 11.8 mV | Lag Phase ([3]; glutamate/malate, 5 μM): 81.7 ± 6.7 s | Maximum potential (ΔΨ in - mV) ([3]; glutamate/malate, 5 μM): 216.4 ± 13.1 mV | Repolarization Potential (ΔΨ in - mV) ([3]; glutamate/malate, 5 μM): 216.1 ± 12.7 mV | ADP-induced depolarization (ΔΨ in - mV) ([3]; glutamate/malate, 10 μM): 192.7 ± 14.4 mV | Lag Phase ([3]; glutamate/malate, 10 μM): 65.7 ± 15.1 s | Maximum potential (ΔΨ in - mV) ([3]; glutamate/malate, 10 μM): 216.8 ± 15.7 mV | Repolarization Potential (ΔΨ in - mV) ([3]; glutamate/malate, 10 μM): 207.7 ± 15.6 mV | ADP-induced depolarization (ΔΨ in - mV) ([3]; succinate, 2.5 μM): 171.2 ± 3.7 mV | Lag Phase ([3]; succinate, 2.5 μM): 95.6 ± 7.5 s | Maximum potential (ΔΨ in - mV) ([3]; succinate, 2.5 μM): 192.0 ± 4.0 mV | Repolarization Potential (ΔΨ in - mV) ([3]; succinate, 2.5 μM): 192.7 ± 5.4 mV | ADP-induced depolarization (ΔΨ in - mV) ([3]; succinate, 5 μM): 176.2 ± 5.0 mV | Lag Phase ([3]; succinate, 5 μM): 97.8 ± 18.8 s | Maximum potential (ΔΨ in - mV) ([3]; succinate, 5 μM): 197.6 ± 6.1 mV | Repolarization Potential (ΔΨ in - mV) ([3]; succinate, 5 μM): 195.4 ± 8.2 mV | ADP-induced depolarization (ΔΨ in - mV) ([3]; succinate, 10 μM): 170.3 ± 5.2 mV | Lag Phase ([3]; succinate, 10 μM): 101.4 ± 23.75 s | Maximum potential (ΔΨ in - mV) ([3]; succinate, 10 μM): 187.4 ± 8.5 mV | Repolarization Potential (ΔΨ in - mV) ([3]; succinate, 10 μM): 183.5 ± 10.5 mV

CS(=O)(=O)[O-].O=C(/C=C/c1cc(O)c(O)c(O)c1)NCCCCCCCCCC[P+](c1ccccc1)(c1ccccc1)c1ccccc1 [AntiOxCIN7, (E)-(10-(3-(3,4,5-trihydroxyphenyl)acrylamido)decyl)triphenylphosphonium methanesulfonate]
IC50 [1]: 2500 nM | Etr (transfer potential) [2]: 0.377 V | initial slight hyperpolarization ([3]; 2.5 μM): 25 mV | ΔΨ in succinate-energized mitochondria ([3]; AntiOxCIN6 above 5 μM, AntiOxCIN7 10 μM): significant decrease of ΔΨ | ADP-induced depolarization (ΔΨ in - mV) ([3]; glutamate/malate, 2.5 μM): 212.2 ± 7.9 mV | Lag Phase ([3]; glutamate/malate, 2.5 μM): 73.4 ± 8.4 s | Maximum potential (ΔΨ in - mV) ([3]; glutamate/malate, 2.5 μM): 251.8 ± 8.7 mV | Repolarization Potential (ΔΨ in - mV) ([3]; glutamate/malate, 2.5 μM): 248.3 ± 8.3 mV | ADP-induced depolarization (ΔΨ in - mV) ([3]; glutamate/malate, 5 μM): 212.6 ± 3.2 mV | Lag Phase ([3]; glutamate/malate, 5 μM): 71.0 ± 10.7 s | Maximum potential (ΔΨ in - mV) ([3]; glutamate/malate, 5 μM): 248.1 ± 3.3 mV | Repolarization Potential (ΔΨ in - mV) ([3]; glutamate/malate, 5 μM): 243.5 ± 5.0 mV | ADP-induced depolarization (ΔΨ in - mV) ([3]; glutamate/malate, 10 μM): 197.1 ± 11.8 mV | Lag Phase ([3]; glutamate/malate, 10 μM): 58.6 ± 5.4 s | Maximum potential (ΔΨ in - mV) ([3]; glutamate/malate, 10 μM): 232.1 ± 9.2 mV | Repolarization Potential (ΔΨ in - mV) ([3]; glutamate/malate, 10 μM): 212.6 ± 18.4 mV | ADP-induced depolarization (ΔΨ in - mV) ([3]; succinate, 2.5 μM): 183.8 ± 6.0 mV | Lag Phase ([3]; succinate, 2.5 μM): 80.0 ± 14.9 s | Maximum potential (ΔΨ in - mV) ([3]; succinate, 2.5 μM): 205.3 ± 7.3 mV | Repolarization Potential (ΔΨ in - mV) ([3]; succinate, 2.5 μM): 199.4 ± 7.1 mV | ADP-induced depolarization (ΔΨ in - mV) ([3]; succinate, 5 μM): 176.2 ± 8.7 mV | Lag Phase ([3]; succinate, 5 μM): 76.0 ± 9.6 s | Maximum potential (ΔΨ in - mV) ([3]; succinate, 5 μM): 191.1 ± 9.0 mV | Repolarization Potential (ΔΨ in - mV) ([3]; succinate, 5 μM): 186.8 ± 7.5 mV | ADP-induced depolarization (ΔΨ in - mV) ([3]; succinate, 10 μM): 163.6 ± 3.2 mV | Lag Phase ([3]; succinate, 10 μM): 65.0 ± 8.7 s | Maximum potential (ΔΨ in - mV) ([3]; succinate, 10 μM): 176.9 ± 3.1 mV | Repolarization Potential (ΔΨ in - mV) ([3]; succinate, 10 μM): 171.0 ± 5.0 mV

CS(=O)(=O)[O-].O=C(/C=C/c1ccc(O)c(O)c1)NCCCCCCCC[P+](c1ccccc1)(c1ccccc1)c1ccccc1 [AntiOxCIN3, (E)-(8-(3-(3,4-dihydroxyphenyl)acrylamido)octyl)triphenylphosphoniummethanesulfonate]
IC50 [1]: 2800 nM | Etr (transfer potential) [2]: 0.345 V | initial slight hyperpolarization ([3]; 2.5 μM): 10 mV | ADP-induced depolarization (ΔΨ in - mV) ([3]; glutamate/malate, 2.5 μM): 199.4 ± 7.4 mV | Lag Phase ([3]; glutamate/malate, 2.5 μM): 65.8 ± 6.6 s | Maximum potential (ΔΨ in - mV) ([3]; glutamate/malate, 2.5 μM): 238.0 ± 9.8 mV | Repolarization Potential (ΔΨ in - mV) ([3]; glutamate/malate, 2.5 μM): 234.8 ± 10.3 mV | ADP-induced depolarization (ΔΨ in - mV) ([3]; glutamate/malate, 5 μM): 200.7 ± 5.5 mV | Lag Phase ([3]; glutamate/malate, 5 μM): 68.2 ± 9.6 s | Maximum potential (ΔΨ in - mV) ([3]; glutamate/malate, 5 μM): 238.9 ± 8.6 mV | Repolarization Potential (ΔΨ in - mV) ([3]; glutamate/malate, 5 μM): 235.0 ± 8.4 mV | ADP-induced depolarization (ΔΨ in - mV) ([3]; glutamate/malate, 10 μM): 302.5 ± 6.3 mV | Lag Phase ([3]; glutamate/malate, 10 μM): 73.8 ± 12.1 s | Maximum potential (ΔΨ in - mV) ([3]; glutamate/malate, 10 μM): 238.0 ± 6.7 mV | Repolarization Potential (ΔΨ in - mV) ([3]; glutamate/malate, 10 μM): 231.5 ± 7.2 mV | ADP-induced depolarization (ΔΨ in - mV) ([3]; succinate, 2.5 μM): 171.5 ± 7.3 mV | Lag Phase ([3]; succinate, 2.5 μM): 84.6 ± 16.7 s | Maximum potential (ΔΨ in - mV) ([3]; succinate, 2.5 μM): 191.2 ± 9.1 mV | Repolarization Potential (ΔΨ in - mV) ([3]; succinate, 2.5 μM): 186.7 ± 9.3 mV | ADP-induced depolarization (ΔΨ in - mV) ([3]; succinate, 5 μM): 174.5 ± 7.7 mV | Lag Phase ([3]; succinate, 5 μM): 92.0 ± 10.3 s | Maximum potential (ΔΨ in - mV) ([3]; succinate, 5 μM): 193.3 ± 7.6 mV | Repolarization Potential (ΔΨ in - mV) ([3]; succinate, 5 μM): 190.4 ± 8.3 mV | ADP-induced depolarization (ΔΨ in - mV) ([3]; succinate, 10 μM): 172.2 ± 7.5 mV | Lag Phase ([3]; succinate, 10 μM): 79.8 ± 17.6 s | Maximum potential (ΔΨ in - mV) ([3]; succinate, 10 μM): 189.7 ± 7.8 mV | Repolarization Potential (ΔΨ in - mV) ([3]; succinate, 10 μM): 184.2 ± 7.6 mV
